Results taken from patent US20050065099A1, “Treatment of mitochondrial diseases” (priority 2003, published 2005).

Columns and labels:
[1] = test system: FRDA fibroblasts; assay: FRDA fibroblast assay for protection from oxidative stress; type: cell-based; conditions: Homo sapiens, 24 h preincubation, 1 mM BSO, compared to untreated FRDA fibroblasts, read-out: EC50 for reduction of cell death in FRDA fibroblasts
Source text: A cellular assay using FRDA-patient derived fibroblasts (as described by Jauslin, M L et al, Human Molecular Genetics 11; 3055-3063 (2002)); is used to determine the cell protecting effect of the test compounds by analyzing survival of dermal fibroblasts taken from FRDA patients and unaffected normal donors under conditions of partial GSH depletion. Exposure of FRDA fibroblasts to BSO (L-buthionine (S,R)-sulfoximine) under conditions of restricted selenium causes depletion of cellular glutathione (GSH) and severe plasma membrane damage leading to cell death. Preincubation with the test compounds before the addition of BSO is used to determine if they can protect FRDA cells from BSO-mediated cell death.
Primary fibroblasts were derived from donors with a molecular diagnosis of FRDA and control donors with no mitochondrial disease. Lines F2, C2 and C3 were obtained from Coriell Cell Repositories (Camden, N.J., USA; catalog #'s GM04078, GM 08402 and GM08399, respectively). All cell types were diagnosed at the molecular level for intronic GAA triplet repeat length in the trataxin gene using a PCR-based method, according to methods known in the art. […] The cells were seeded in microtiter plates at a density of 4000 cells per 100 μl in growth medium consisting of 25% (v/v) M199 EBS and 64% (v/v) MEM EBS without phenol red (Bioconcept, Allschwil, Switzerland) supplemented with 10% (v/v) fetal calf serum (PAA Laboratories, Linz, Austria), 100 U/ml penicillin, 100 μg/ml streptomycin (PAA Laboratories, Linz, Austria), 10 μg/ml insulin (Sigma, Buchs, Switzerland), 10 μg/ml EGF (Sigma, Buchs, Switzerland), 10 μg/ml bFGF (PreproTech, Rocky Hill, N.J., USA) and 2 mM glutamine (Sigma, Buchs, Switzerland). The cells were incubated in the presence of the various test compounds for 24 h before addition of 1 mM BSO (L-buthionine (S,R)-sulfoximine).
Cell viability was measured after the first signs of toxicity appeared in the BSO-treated controls (typically after 16-48 h). The cells were stained for 60 min at room temperature in PBS with 1.2 μm calceinAM and 4 μm ethidium homodimer (Live/Dead assay, Molecular Probes, Eugene, Oreg., USA). Fluorescence intensity was measured with a Gemini Spectramax XS spectrofluorimeter (Molecular Devices, Sunnyvale, Calif., USA) using excitation and emission wavelengths of 485 and 525 nm, respectively.

[2] = test system: Male C57/BL6 mice; assay: MPTP animal model (neurobehavioral outcome); type: in vivo; conditions: 30 mg/kg/day ip; for functional deficit produced by MPTP: days 1-3; for functional outcome versus vehicle treated animals: days 1 and 2, comparable to negative control group
Protocol: In vivo evaluation is carried out using mice that have been treated with 1-methyl-4-phenyl-1,2,3,6-tetrahydropyridine (MPTP), a neurotoxin. […] In a number of species, including humans, […] and rodents, MPTP produces an irreversible and severe parkinsonian syndrome which includes virtually all the clinical features of the disease.
Male C57/BL6 mice (Harlan, Ind.), weight 25-30 g, were used in all studies. MPTP-HCl (Sigma) was administered i.p. according to one of the following protocols. The maximum volume which was given per injection is 200 μL. In all studies, animals were euthanized with carbon dioxide and, brains were removed for subsequent determination of dopamine depletion where appropriate.
Animals received 25 mg/kg of MPTP once a day for 5 consecutive days. The end point was 2 days after the final dose.
Animals received 4×20 mg/kg of MPTP at 2 hour intervals. The end point was at either 7 or 14 days.
Animals received 2×40 mg/kg of MPTP with this repeated 16 hours later. The end point was at either 14 or 28 days.
Animals received 25 mg/kg of MPTP, given twice weekly for 5 weeks. The end point was either 1, 3 or 24 weeks after the final dose.
Compound efficacy was examined with the use of neurobehavioral models. These models allowed the determination of a given compound's ability to reverse the motor deficits seen with MPTP treatment.
All animals received pre-training for the individual model and a baseline reading was obtained one day prior to the commencement of MPTP treatment.
The open field test was carried out in a clear, acrylic open box 60 cm×60 cm. The base of the box was marked into a 5×5 grid of […] squares. Animals were individually placed in the box and allowed to roam free. The number of squares an animal crossed in a 90 second time period was recorded. In order to be scored, the animal must either have had all four limbs within a given square or, all four limbs must have left a given square.
A tactile stimulus (0.5×0.5 cm square of “sticky tape”) was applied to each side of the animal's face and the time taken to remove it is recorded. The following measurements were recorded: • a. Latency to contact left side tape • b. Latency to contact right side tape • c. Order of side contacted (left vs. right) • d. Latency to remove left side tape • e. Latency to remove right side tape Pole Test
A rough surfaced metal pole (diameter 8 mm, height 50 cm) protruding from a cage filled with animal bedding was used for this test. Animals were placed head upwards at the top of the pole. They were required to turn and descend face downwards and the time taken for this was recorded (latency to reach bedding). Timing was started when the individual animal gripped the top of the pole and was stopped when all four limbs contacted the bedding.
All test compounds were administered ip. The maximum volume which was given per injection was 200 μL. Compounds were dosed up to twice daily, two days prior and 7 days post MPTP treatment.
A baseline reading was taken for each animal one day prior to MPTP treatment. All subsequent readings were normalized to the individual animal's baseline. Values were expressed as a percent baseline.
Data was percent baseline and expressed as mean±std dev: […]
Compound and vehicle given for 9 days in total, 2 days prior to MPTP and 7 days after MPTP treatment. L-DOPA given 1 hour prior to the pole test, each day.

[3] = test system: dopaminergic neuronal cell line; assay: High glutamate-induced oxidative stress assay (HGOS); type: cell-based; conditions: Mus musculus; 30 mM glutamate, 16 hrs, Cell Tracker Green; read-out: EC50 for protection against HGOS cell injury and cell death
Source text: Protection against redox stress can be further evaluated in cell culture using high glutamate induced oxidative stress (HGOS) in mouse dopaminergic cell lines. The cytotoxic effect of glutamate is not due to excitotoxicity, as this cell line is devoid of inotropic glutamate receptors. Rather, the glutamate-induced toxicity of dopaminergic cells is associated with an inhibition of cystine transport which subsequently leads to depletion of intracellular glutathione (GSH) levels (Murphy T. H., et al. Neuron 2, 1547-1558, 1989), activation of neuronal 12-lipoxygenase (Li, Y. et al., Neuron 19,453-463, 1997), increased ROS production (Tan S. et al., J. Cell Biol. 141, 1423-1432, 1998) and elevated intracellular Ca^2+ (Li, Y. et al., see supra). Some molecules were measured for their ability to protect such cells against glutamate-induced stress and the assay is detailed in Examples.
This procedure was used to induce high glutamate-induced oxidative stress (HGOS) in a dopaminergic neuronal cell line. Using this assay the potency and efficacy of test articles against HGOS neuronal cell injury and cell death was established in a high throughput manner.
The cells were seeded into 96-well plates at a density of 2000 per well and left to grow for 72 hours in a 33° C. incubator with 5% CO2 in air atmosphere. The passage number of the cells for each assay experiment were no later than p11 in order to minimize experimental variation.
All compounds were dissolved in DMEM-No Glu containing 1 mM glucose, 30 mM glutamate and 1× Pen/Strep. DMEM-No Glu with 1 mM glucose and 1×P/S was used as the negative control, DMEM-No Glucose with 1 mM glucose, […] was used as a positive control and 100 μM Glutathione was added to the positive control as a standard. All of the procedures for this involving the making and dilution of compounds were performed using aseptic conditions and with minimal light.
The plates were removed from the incubator and examined under the microscope for morphological appearance and density. Using an aseptic technique and an 8-channel aspirator the media was carefully removed from the cells and replaced with 200 μl of 1×HBSS. This was done as quickly as possible to prevent the cells drying out. The plates were then placed in the humidified 37° C. incubators of the Biomek 2000 Side Loader. Four plates were washed at a time so as to minimize the time that the cells were sitting in 1×HBSS prior to addition of the compound test solution.
The Beckman Biomek workstations were used to load the compounds and controls from the mother plates onto the cell plates that were prewashed with HBSS under sterile conditions. The plates were incubated in the upper HTS incubator at 37° C. in 5% CO2 for exactly 16 hrs. The following day, using the Beckman Biomek workstations, the plates were removed from the incubator. Using Cell Tracker Addition, the compounds were removed from the plates, washed once with […] of pre-warmed 1×HBSS and then 100 μL of 5 μM Cell Tracker Green was added to each well. The plates were incubated at 37° C. for 30 min to allow the dye to enter the cell and be cleaved by the esterases. After washing the cells twice with prewarmed 1×HBSS, the plates were read with the 485 excitation; 538 emission filter pair on a Fluoroskan.

| SMILES | EC50 [1] | functional deficit produced by MPTP [2] | functional outcome versus vehicle treated animals [2] | EC50 [3] |
| --- | --- | --- | --- | --- |
| COC(=O)CCC1(C)CCc2c(Br)c(O)c(C)c(C)c2O1 (centres unmarked) [3-(5-Bromo-6-hydroxy-2,7,8-trimethyl-chroman-2-yl)-propionic acid methyl ester] | 0.01 to 6 µM | significantly reduced | significantly better | ≤ 5 µM |
| Cc1cc(O)cc2c1OC(C)(CCC(=O)O)CC2 (centres unmarked) [3-(6-Hydroxy-2,8-dimethyl-chroman-2-yl)-propionic acid] | 0.01 to 6 µM | significantly reduced | significantly better | – |
| COC(=O)CSCc1c(O)c(C)c(C)c2c1CCC(C)(C)O2 [(6-Hydroxy-2,2,7,8-tetramethyl-chroman-5-ylmethylsulfanyl)-acetic acid methyl ester] | – | significantly reduced | significantly better | ≤ 5 µM |
| CC(C)=CCc1c(O)c(C)c(C)c2c1CCC(C)(C)O2 [2,2,7,8-Tetramethyl-5-(3-methyl-but-2-enyl)-chroman-6-ol] | – | significantly reduced | significantly better | – |
| CC(C)=CCc1c(O)c(C)c(C)c2c1CCC(C)(CCC(=O)O)O2 (centres unmarked) [3-[6-Hydroxy-2,7,8-trimethyl-5-(3-methyl-but-2-enyl)-chroman-2-yl]-propionic acid] | – | significantly reduced | significantly better | – |
| Cc1c(O)cc2c(c1C)OC(C)(C)C=C2 [2,2,7,8-Tetramethyl-2H-chromen-6-ol] | 0.01 to 6 µM | significantly reduced | significantly better | – |
